# Assay results reported in patent US20220175974A1, “TARGETING COMPOUNDS FOR CANCERS SELECTED FROM ESOPHAGUS, PHARYNX AND LARYNX, LUNG, BRAIN, AND INTESTINES” (HQ MEDICAL NETHERLANDS B.V., priority 2019, published 2022).
# Tests used:
# [1] = system: intracellular proteins, including tubulin and actin; assay: binding of cyanine targeting molecules to intracellular proteins
# Excerpt: (§1) The present targeting molecule is very selective and very specific in binding to necrotic cells. […] For the present invention four specific cyanines are selected, namely HQ4, HQ5, CW-800 and ZW-800. These molecules are found to have a high affinity towards the intracellular proteins, including tubulin and actin. […] As a result very low concentrations c.q. amounts of the present system may be used to provide advantageous effects thereof. It is noted that apoptosis specific probes, in contrast to necrosis specific probes will also target healthy tissue as apoptosis is involved in normal tissue turnover. The present cyanine is attached to a second entity, namely a chelator, wherein the chelator is selected from DOTA and NOTA (DOTA: 1,4,7,10-Tetraazacyclododecane-1,4,7,10-tetraacetic acid and NOTA: 1,4,7-triazacyclononane-N,N′,N″-triacetic acid). Attached to the chelator is attached a third entity, namely a radionuclide selected from Cu, In, Gd, Ga, Lu, Y, I, and Zr. The present system is found to be effective as a medicament, also referred to as drug, for cancers selected from esophagus, pharynx and larynx, lung, brain, and intestines. These cancers are considered to relate to and being associated with the Central Nervous system, the respiratory tract, the gastro-intestinal tract, […], and head-neck region, respectively. […]
# [2] = clearance of the cyanines in the human body; assay type: in vivo
# Excerpt: as §1
smiles,measurement,setting,value
CC1(C)C(/C=C/C2=C(Oc3ccc(S(=O)(=O)O)cc3)C(=C/C=C3/N(CCCCS(=O)(=O)O)c4ccc(S(=O)(=O)[O-])cc4C3(C)C)/CCC2)=[N+](CCCCCC(=O)O)c2ccc(S(=O)(=O)O)cc21 [CW-800],affinity towards the intracellular proteins,[1],high affinity
same,clearance in the human body,[2],cleared in the human body specifically well
